Measured values taken from patent US20250034127A1, “AUTOPHAGY INDUCING COMPOUNDS AND USES THEREOF, IN PARTICULAR FOR DISEASES OF THE CNS” (Samsara Therapeutics Inc., priority 2021, published 2025).
Like-named read-outs stand apart in the source and are kept apart here.

Legend:
[1] = test system: primary culture of dopaminergic Tyrosine hydroxylase (TH)-positive neurons; test: Cellular model of Parkinson's disease (MPTP/MPP+ injury); type: cell-based, rat; conditions: for decrease in α-syn area per dopaminergic TH positive neuron / increase in the length of the neurite network of dopaminergic TH positive neurons / increase in the number of dopaminergic TH positive neurons: compared to MPP+ injury alone
Excerpt: This model (run by Neuro-Sys SAS, France) is based on a primary culture of dopaminergic Tyrosine hydroxylase (TH)-positive neurons injured with the dopaminergic neurons-specific toxin (DA-toxin) 1-methyl-4-phenyl-1,2,3,6 tetrahydropyridine (MPTP, a prodrug of MPP^+) (Dauer and Przedborski, 2003). Any substances reducing DA-toxin neurotoxicity may be useful as a new therapeutic agent for the treatment or prevention of PD.
Primary culture of mesencephalic neurons: Rat dopaminergic neurons were cultured as described by Visanji et al., 2008 and Callizot et al., 2019. Briefly, pregnant female rat (Wistar) of 15 days of gestation were killed using a deep anesthesia with CO2 chamber and a cervical dislocation. The midbrains obtained from 15-day-old rat embryos (Janvier, France) were dissected under a microscope. The embryonic midbrains will be removed and placed in ice-cold medium of Leibovitz (L15) containing 2% of Penicillin-Streptomycin (PS) and 1% of bovine serum albumin (BSA). The ventral portion of the mesencephalic flexure, a region of the developing brain rich in dopaminergic neurons, was used for the cell preparations.
The midbrains were dissociated by trypsinisation for 20 min at 37° C. (solution at a final concentration of 0.05% trypsin and 0.02% EDTA). The reaction was stopped by the addition of Dulbecco's modified Eagle's medium (DMEM) containing DNAase I grade II (0.5 mg/mL) and 10% of foetal calf serum (FCS). Cells were then mechanically dissociated by 3 passages through a 10 ml pipette. Cells were then centrifuged at 180×g for 10 min at +4° C. on a layer of BSA (3.5%) in L15 medium. The supernatant was discarded, and the cell pellets re-suspended in a defined culture medium consisting of Neurobasal supplemented with B27 (2%), L-glutamine (2 mM) and 2% of PS solution and 10 ng/mL of Brain-derived neurotrophic factor (BDNF) and 1 ng/ml of Glial-Derived Neurotrophic Factor (GDNF). Viable cells were counted in a Neubauer cytometer using the trypan blue exclusion test. The cells were seeded at a density of 40,000 cells/well in 96 well-plates (pre-coated with poly-L-lysine) and maintained in a humidified incubator at 37° C. in 5% CO2/95% air atmosphere. Half of the medium was changed every 2 days with fresh medium. The wells of first and last lines and columns […] (to avoid any edge effect) and were be filled with sterile water.
• i) Pre-incubation. On day 6 of culture, the test compounds were dissolved in PBS or DMSO and incubated for 1 hour before the MPTP exposure. • ii) Injury. One hour after the application of test compound, MPTP was added to a final concentration of 4 μM, diluted in control medium still in presence of compounds/inhibitors for 48 h. Test compounds were tested on one culture in 96-well plate (n=6 culture wells per condition).
Immunostaining: TH and α-Synuclein. 48 Hours after intoxication, the cell culture supernatant was removed, and the cells were fixed by a solution of 4% paraformaldehyde in PBS, pH=7.3 for 20 min at room temperature. The cells were washed twice in PBS, and then permeabilized. Non-specific sites were blocked with a solution of PBS containing 0.1% of saponin and 1% FCS for 15 min at room temperature. The cultures were incubated with: (a) monoclonal anti-Tyrosine Hydroxylase (TH) antibody produced in mouse at dilution of 1/10000 in PBS containing 1% FCS, 0.1% saponin, for 2 hours at room temperature, and (b) polyclonal anti-alpha synuclein (α-synuclein) antibody produced in rabbit at dilution of 1/200 in PBS containing 1% FCS, 0.1% saponin, for 2 h at room temperature.
Automatic computer analysis. For each condition, 20 pictures (representing the whole well area) were automatically taken using ImageXpress® (Molecular Devices) at 10× magnification (20 pictures, for TH and α-synuclein into TH neurons) using the same acquisition parameters. From images, analyses was directly and automatically performed by MetaXpress® (Molecular Devices). […]

[2] = test system: primary spinal cord lower motor neurons (MNs) from SOD1 G93A Tg rats; test: Cellular model of Amyotrophic Lateral Sclerosis (glutamate injury); type: cell-based, rat
Protocol: Compounds 157 (particularly) preferred), 185 and 196 were selected example compounds if this invention to evaluate in this model. This model (run by Neuro-Sys SAS, France) evaluates the protective effects of test compounds on primary spinal cord lower motor neurons (MNs) from SOD1 G93A Tg rats, after a glutamate injury. The MNs are pre-treated with the test compounds for 1 hour prior to exposure to glutamate, and readouts are measured 24 hours later. This model functions as an in vitro model of Amyotrophic Lateral Sclerosis. […] Any substances which can attenuate one or more of these effects can be considered to have protective effects in the model and may be useful as a new therapeutic agent for the treatment or prevention of ALS.
Genotyping of SOD1 Tg embryos: Pregnant female rat SODIG93A (Sprague Dawley, Taconic), of 14 days of gestation were obtained fromTaconic Bioscience. On the day of the dissection (from pregnant females at 14 days of gestation), a piece of each embryo brain (˜3 mm) was placed in a 2 mL tube free DNase with a new scalpel. The DNA was extracted with the SYBR Green Extract-N-Amp tissue PCR kit (Sigma Aldrich). Briefly, 120 μL of extraction solution was put on each piece of embryo heads. Then, they were incubated for 10 min at room temperature. At the end of this incubation period, the heads were incubated for 5 min at 95° C. Immediately after this last incubation, 100 μL of neutralizing solution was added; each DNA extract was diluted at 1/40 and stored at +4° C. until use. SOD1G93A gene was determined using genomic fragment with human SOD1 primers (5′-[…]-3′ (SEQ ID NO: 1); 5′-[…]-3′ (SEQ ID NO: 2)). The SOD1 primers were diluted at 3 μM in sterile ultrapure water. Briefly, a mix for PCR was prepared with ultrapure water (4 μL per sample), primer at 3 μM (2 μL per sample) and Master Mix (10 μL per sample). In a PCR 96 wells plate, 16 μL of PCR mix was added in each well. 4 μL of each diluted DNA was added according to a plan deposit. The RT-PCR was ran using the CFX96 Biorad RT-PCR system, using the following program: Initial denaturation (95° C., 20 sec)/45 cycles (95° C., 10 sec; 65° C., 10 sec; 72° C., 30 sec)/Melt curve (95° C., 15 sec; 64° C., 1 min; 90° C., 30 sec; 60° C. 15 sec). The amplification plots and melt curves were analyzed with the Biorad software. The results for each sample were compared to negative control (ultrapure water) and to the positive control (DNA from Tg embryos).
Rat spinal cord motor neurons (MNs) were be cultured as described by Wang et al. 2013 and Boussicault et al., 2020. Briefly, pregnant female rats of 14 days gestation (Sprague Dawley; Taconic) were killed using a deep anesthesia with CO2 chamber and a cervical dislocation. Then, fetuses were removed from the uterus and immediately placed in ice-cold L15 Leibovitz medium with a 2% penicillin (10,000 U/ml) and streptomycin (10 mg/ml) solution (PS) and 1% bovine serum albumin (BSA).
Spinal cords were treated for 20 min at 37° C. with a trypsin-EDTA solution at a final concentration of 0.05% trypsin and 0.02% EDTA. The dissociation was stopped by addition of Dulbecco's modified Eagle's medium (DMEM) with 4.5 g/liter of glucose, containing DNAse I grade II (final concentration 0.5 mg/mL) and 10% fetal calf serum (FCS). Cells were mechanically dissociated by three forced passages through the tip of a 10-ml pipette. Cells were then centrifuged at 515×g for 10 min at 4° C. The supernatant was discarded, and the pellet was resuspended in a defined culture medium consisting of Neurobasal medium with a 2% solution of B27 supplement, 2 mmol/liter of L-glutamine, 2% of PS solution, and 10 ng/ml of brain-derived neurotrophic factor (BDNF). Viable cells were counted in a Neubauer cytometer, using the trypan blue exclusion test. The cells were seeded at a density of 20,000 per well in 96-well plates precoated with poly-L-lysine and will be cultured at 37° C. in an air (95%)—CO2 (5%) incubator. […]

[3] = Bioavailability / brain and plasma pharmacokinetics after oral dosing; type: in vivo; conditions: CD1 mice; for half-life / bioavailability: mouse
Excerpt: The compounds according to the invention have good properties for oral dosing and readily cross the blood brain barrier.

[4] = brain, oral dose of 30 mg/kg, read-out: half-life in the brain (converted)
[5] = plasma, oral, 30 mg/kg, read-out: half-life in plasma (converted)

maximum concentration in brain plasma ([3]; oral dose of 30 mg/kg) [ng/mL] | time of maximum concentration in brain plasma ([3]; oral dose of 30 mg/kg) [h] | half-life [3, 4] [h] | bioavailability ([3]; plasma, 30 mg/kg, oral) [%] | half-life [3, 5] [h] | Structure (SMILES) | effects in the in vitro model of PD based on MPP+ injury [1] | decrease in α-syn area per dopaminergic TH positive neuron ([1]; 1 μM) [%] | increase in the length of the neurite network of dopaminergic TH positive neurons ([1]; 1 μM) [%] | increase in the number of dopaminergic TH positive neurons ([1]; 1 μM) [%] | effects in the in vitro model of ALS [2] | increase in neurite network length ([2]; 0.1 μM, 0.5 μM and 1 μM, compared to glutamate injury alone) [%] | abnormal TDP43 accumulation in the cytoplasm resulting from glutamate injury ([2]; 0.1 μM, 0.5 µM, 1 μM and 10 μM) | decrease in α-syn area per dopaminergic TH positive neuron ([1]; 500 nM, 1 μM and 10 μM) [%] | increase in the length of the neurite network of dopaminergic TH positive neurons ([1]; 500 nM, 1 μM and 10 μM) [%] | increase in the number of dopaminergic TH positive neurons ([1]; 500 nM, 1 μM and 10 μM) [%] | abnormal cytoplasmic TDP-43 accumulation resulting from glutamate injury ([2]; 0.1 μM, 0.5 µM and 1 μM)
2153 | 1.5 | 1.8 | 81 | 1.8 | C[C@H]1CN(C(=O)c2csc(-c3cnn(-c4ccccc4)c3)n2)CCN1 [Compound 157, (3S)-3-methyl-1-[2-(1-phenyl-1H-pyrazol-4-yl)-1,3-thiazole-4-carbonyl]piperazine] | positive effects | 21 | 35 | 27 | positive effects | > 20 | fully abolished |  |  |  | 
3457 | 1 | 13 | 100 | 18 | CCN1CCC(NC(=O)c2csc(-c3cnn(-c4ccccc4)c3)n2)CC1 [Compound 185, N-(1-ethylpiperidin-4-yl)-2-(1-phenyl-1H-pyrazol-4-yl)-1,3-thiazole-4-carboxamide] | positive effects |  |  |  | positive effects |  |  | > 14 | > 27 | > 22 | fully abolished
